Test [1] relates to human B virus: B/Lee/40. It counts as binding, human influenza B virus.
Test [2] deals with avian A virus: A/duck/Hong Kong/24/76 (H3N2). It counts as binding, avian influenza A virus.
Test [3] relates to human A virus: A/Memphis/1/71/(H3N2). Type of test: binding, human influenza A virus.

With “Poly (Neu5Ac α2-3Gal β1-4GlcNAc β-pAP/α-PGA)”, in test [1], the “recognition of the polymer with sialo-oligosaccharide by the human influenza B virus (absorbency at 492 nm)” value is “weak”. Moreover, the “recognition of the polymer with sialo-oligosaccharide by the avian influenza A virus (absorbency at 492 nm)” value in test [2] is “strongly recognizes”. In addition, the “recognition of the polymer with sialo-oligosaccharide by the human influenza A virus (absorbency at 492 nm)” value in test [3] is on record as “weak”.

Take “Poly (Neu5Ac α2-6Gal β1-4GlcNAc β-pAP/α-PGA)”: the “recognition of the polymer with sialo-oligosaccharide by the human influenza B virus (absorbency at 492 nm)” value in test [1] is “strongly recognizes”. In test [2], the “recognition of the polymer with sialo-oligosaccharide by the avian influenza A virus (absorbency at 492 nm)” value is recorded as “weak”. In test [3], the “recognition of the polymer with sialo-oligosaccharide by the human influenza A virus (absorbency at 492 nm)” value is given as “strongly recognizes”.
